For assay [1], the target named is T1, PAF specific receptor binding site on rabbit platelet plasma membranes (Oryctolagus cuniculus, UniProt G1TEI7).
T1 construct: 100 μg of the platelet plasma membrane suspension; from tissue; host or cells: rabbit platelet plasma membranes
Briefly: Inhibition of 3H-PAF binding to rabbit platelet plasma membrane. The conditions noted are these: 1 h.
Experimental: The inhibition of H^3 -PAF binding to the rabbit platelet plasma membrane by a PAF-antagonist of Formula (I) was determined by a method employing isotopic labeling and filtration techniques. Generally, a series of Tris-buffered solutions of the selected antagonist at predetermined concentrations were prepared. […] After adding into a set of test tubes each with 100 μg of the platelet plasma membrane suspension and one of the Tris-buffer solutions described above, the resulting mixture in each test tube was incubated at 0° C. for about one hour or until the reaction was complete. Two control samples, one of which (C1) contains all the ingredients described above except the antagonist and the other (C2) contains C1 plus a 1000-fold excess of unlabelled PAF, were also prepared and incubated simultaneously with the test samples. After the incubation was completed, the contents of each test tube were filtered under vacuo through a Whatman GF/C fiberglass filter and the residue washed rapidly several times with a total of 20 ml cold (0°-5° C.) Tris-buffer solution. Each washed residue was then suspended in 10 ml scintillation solution (Aquasol 2, New England Nuclear, Conn.) and the radioactivity was counted in a Packard Tri-Carb 460CD Liquid Scintillation System. Defining the counts from a test sample as "Total binding with antagonist"; the counts from the control sample C1, as "Total binding C1 "; and the counts from the control sample C2 as "non-specific binding C2 ", the percent inhibition of each test antagonist can be determined by the following equation: [formula]

Assay [2] relates to PAF-induced degranulation. Description: Method II: inhibition of PAF-induced degranulation in rats. It is filed as in vivo, rat. The following applies: oral dose of 50 mg/kg.
Assay [3] deals with PAF. Description: PAF-antagonist activity (general comparison).
Assay [4] concerns PAF-induced cutaneous vascular permeability. Description: Method I: oral inhibition of PAF-induced increase of cutaneous vascular permeability. The following applies: guinea pig, dose 50 mg/kg PO. It counts as in vivo. From the text:
The specific PAF-antagonistic activities are further established by two in vivo assays (Modified procedure of Humphrey et al. Lab. Investigation, 46, 422 (1982)) following the protocols described below:
Method I: Protocol for the evaluation of the oral activity of PAF antagonists or the inhibition of PAF-induced increase of vasopermeability by PAF-antagonists
I. Animal species: 5 guinea pigs (400-500 g)
II. Material: 0.5% (w/v) aqueous methylcellulose solution sodium nembutol
2% Evans Blue solution: 2 g of Evans Blue in 100 ml of pH 7.5 Tris-Buffer solution
Tris-Buffer solution: 150 mM NaCl and 10 mM Tris/ml with pH adjusted to 7.5.
1. Weigh the guinea pigs. Label them as control, T1, T2, T3 and T4.
2. Fast the animals overnight.
3. Weigh the animals again after the fasting.
4. Ground and suspend a PAF antagonist of formula (I) with intensive sonication in 3 ml of 0.5% aqueous methylcellulose solution.
5. […]
8. […] In the meantime, shave the backs of the guinea pigs and get ready for the PAF injection. […]
15. Measure the absorbance of each supernatant from Step (14) ("skin sample") as well as the plasma extract from Step (13) ("plasma sample") at 620 nm with a Cary 210 spectrophotometer (Varian, Palo Alto, CA). […]

T1 sequence (G1TEI7 1-342): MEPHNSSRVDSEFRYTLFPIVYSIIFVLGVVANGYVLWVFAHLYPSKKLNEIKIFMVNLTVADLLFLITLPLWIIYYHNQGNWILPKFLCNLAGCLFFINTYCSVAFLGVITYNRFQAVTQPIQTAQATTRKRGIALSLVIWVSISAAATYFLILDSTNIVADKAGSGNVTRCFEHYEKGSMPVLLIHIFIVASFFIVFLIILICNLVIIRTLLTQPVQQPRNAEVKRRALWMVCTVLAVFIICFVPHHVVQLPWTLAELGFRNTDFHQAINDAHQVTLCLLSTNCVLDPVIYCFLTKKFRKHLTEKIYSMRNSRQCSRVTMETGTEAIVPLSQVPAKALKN

For the compound `COc1ccc(OC)c(C2OC(c3cc(OC)ccc3OC)C(C)C2C)c1` (stereo not shown), at 10 µM the inhibition in assay [1] was 52%. In the case of `COC(=O)[C@@H]1[C@@H](C(=O)OC)[C@H](c2cc(OC)c(O)cc2Cl)O[C@@H]1c1cc(OC)c(O)cc1Cl` (relative stereo), in assay [1], testing at 1 µM gave an inhibition of 15%.

Take `COC[C@H]1[C@@H](C)[C@@H](c2ccc(OC)c(OC)c2)O[C@H]1c1ccc(OC)c(OC)c1` (relative stereo) [R=CH3; R1=CH2OCH3; Ar=3,4-dimethoxyphenyl; Ar1=Same as Ar; isomer (4)]: at 5 µM the inhibition in assay [1] was 62%. In assay [1] (dose 0.5 (μm)), `COc1cc([C@H]2O[C@@H](c3cc(OC)c(OC)c(OC)c3)[C@H](C)[C@H]2C)cc(OC)c1OC` (relative stereo) [R=CH3; R1=CH3; Ar=3,4,5-trimethoxyphenyl; Ar1=Same as Ar; isomer (1)] returned an inhibition at 0.5 µM of 42%. For the same compound, the inhibition at 5 µM in assay [1] was 61%. In assay [1], `COc1cc([C@@H]2O[C@@H](c3cc(OC)c(OC)c(OC)c3)[C@H](C)[C@H]2C)cc(OC)c1OC` (relative stereo) [R=CH3; R1=CH3; Ar=3,4,5-trimethoxyphenyl; Ar1=Same as Ar; isomer (2)] registered an inhibition at 1 µM of 2%, an inhibition at 5 µM of 39% and an inhibition at 20 µM of 63%. In assay [1], `COc1ccc([C@H]2O[C@@H](c3ccccc3)[C@@H](C)[C@H]2C)cc1OC` (relative stereo) [R=CH3; R1=CH3; Ar=3,4-dimethoxyphenyl; Ar1=phenyl; isomer (4)] showed an inhibition at 1 µM of 9% and an inhibition at 10 µM of 100%. In assay [1], `C[C@@H]1[C@H](C)[C@H](c2ccccc2)O[C@@H]1c1ccc2c(c1)OCO2` (relative stereo) [R=CH3; R1=CH3; Ar=3,4-methylenedioxyphenyl; Ar1=phenyl; isomer (4)] yielded an inhibition at 1 µM of 11% and an inhibition at 10 µM of 45%. In assay [1], `COc1cccc([C@H]2O[C@@H](c3ccccc3)[C@@H](C)[C@H]2C)c1` (relative stereo) [R=CH3; R1=CH3; Ar=3-methoxyphenyl; Ar1=phenyl; isomer (4)] had an inhibition at 1 µM of 28% and an inhibition at 10 µM of 49%.

In the case of `COc1ccc([C@H]2O[C@@H](c3ccc(OC)cc3)[C@H](C)[C@H]2C)cc1` (relative stereo) [R=CH3; R1=CH3; Ar=4-methoxyphenyl; Ar1=Same as Ar; isomer (1)], in assay [1], 10 µM produced 47% inhibition. In the case of `C[C@@H]1[C@@H](C)[C@H](c2ccccc2)O[C@@H]1c1ccccc1` (relative stereo) [R=CH3; R1=CH3; Ar=phenyl; Ar1=phenyl; isomer (1)], the inhibition at 5 µM in assay [1] was determined as 13%. Regarding `COC(=O)[C@@H]1[C@H](C)[C@H](c2ccc(OC)c(OC)c2)O[C@@H]1c1ccc(OC)c(OC)c1` (relative stereo) [R=CO2CH3; R1=CH3; Ar=3,4-dimethoxyphenyl; Ar1=Same as Ar; isomer (4)], in assay [1], the inhibition at 1 µM was determined as 33%.

`CCOC(=O)[C@@H]1[C@@H](C(=O)OCC)[C@H](c2ccc(OC)c(OC)c2)O[C@@H]1c1ccc(OC)c(OC)c1` (relative stereo) [R=CO2Et; R1=CO2Et; Ar=3,4-dimethoxyphenyl; Ar1=Same as Ar; isomer (1)] registered an inhibition at 1 µM in assay [1] of 63%.

In the case of `COc1ccc([C@H]2O[C@@H](c3ccc(OC)c(OC)c3)[C@@H](C)[C@H]2C(=O)O)cc1OC` (relative stereo) [R=COOH; R1=CH3; Ar=3,4-dimethoxyphenyl; Ar1=Same as Ar; isomer (4)], the inhibition at 1 µM in assay [1] is 18%. Consider `COc1cc([C@H]2O[C@@H](c3cc(OC)c(OC)c(OC)c3)[C@@H](C)[C@H]2C)cc(OC)c1OC` [R=CH3; R1=CH3; Ar=3,4,5-trimethoxyphenyl; Ar1=Same as Ar; isomer (4)], for which, in assay [1], the inhibition at 1 µM came to 12%, the inhibition at 5 µM came to 48% and the inhibition at 20 µM was found to be 68%. As to `COc1ccc([C@H]2O[C@@H](c3ccc(OC)c(OC)c3)[C@@H](C)[C@H]2C)cc1OC` [R=CH3; R1=CH3; Ar=3,4-dimethoxyphenyl; Ar1=Same as Ar; isomer (4), All cis-3,4-Dimethyl-2,5-bis(3,4-dimethoxyphenyl)-tetrahydrofuran], the “inhibition of PAF-induced degranulation” value in assay [2] is listed as 49%. Moreover, the “PAF-antagonist activity, rank in words” value in assay [3] was “most active PAF-antagonist”. Further, in assay [4], the “% inhibition” value turned out to be 30%.

Source of the values: patent US4595693A, “Method of use of 2,5-diaryl tetrahydrofurans and analogs thereof as PAF-antagonists” (Merck & Co., Inc., priority 1984, dated 1986).
